Laboratory results reported in patent publication US6451576B1, “Sesquiterpene synthases from grand fir (Abies grandis), and methods of use” (Washington State University Research Foundation, priority 1998, dated 2002).

target: T1, δ-Selinene Synthase (ag4) (SEQ ID No. 20) (Abies grandis, UniProt O64404); experiment: Product profile of recombinant δ-selinene synthase in vitro (preparative assay, GLC-MS); format: biochemical; settings: from [1-3H]farnesyl diphosphate; total ion current chromatogram
T1 construct: made in house; host or cells: E. coli XL1-Blue/pGAG4 or E. coli BL21(DE3)/pSBAG4
T1 sequence (O64404 1-581): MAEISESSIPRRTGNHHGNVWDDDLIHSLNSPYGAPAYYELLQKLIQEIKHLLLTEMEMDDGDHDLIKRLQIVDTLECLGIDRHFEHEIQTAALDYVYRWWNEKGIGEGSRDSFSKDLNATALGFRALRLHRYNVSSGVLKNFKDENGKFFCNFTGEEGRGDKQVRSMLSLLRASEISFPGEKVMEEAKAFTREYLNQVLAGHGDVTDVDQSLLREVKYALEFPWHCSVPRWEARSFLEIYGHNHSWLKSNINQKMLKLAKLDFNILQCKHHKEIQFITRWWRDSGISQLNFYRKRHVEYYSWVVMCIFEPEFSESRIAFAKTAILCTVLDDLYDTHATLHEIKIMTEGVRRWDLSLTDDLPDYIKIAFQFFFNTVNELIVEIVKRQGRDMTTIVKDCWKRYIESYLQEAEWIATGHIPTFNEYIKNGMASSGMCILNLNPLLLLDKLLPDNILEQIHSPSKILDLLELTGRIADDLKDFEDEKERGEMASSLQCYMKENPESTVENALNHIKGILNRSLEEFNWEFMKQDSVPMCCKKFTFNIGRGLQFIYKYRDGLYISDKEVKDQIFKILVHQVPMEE
Procedure: (§1) For preparative incubations, the assay was scaled to 5 ml containing the total protein extracted from 100 ml of bacterial culture and 30 μM [1-^3H]farnesyl diphosphate, and the incubation time was extended to 8 h. Aliquots of the olefin fraction and the fraction containing oxygenated metabolites (diethyl ether eluate) were evaluated by liquid scintillation counting, and were analyzed by radio-GLC (Croteau, R. & Cane. D. E. (1985) Methods Enzymol. 110, 383-405; Satterwhite, D. M. & Croteau, R. (1988) J. Chromatogr. 452, 61-73) using a Gow-Mac 550P chromatograph that was equipped with a 3.18 mm×3.66 m stainless steel column packed with 5% OV17 (50% phenyl:50% methylsiloxane) on 100/120 mesh Gas Chrom Q (Alltech) and programmed from 150° C. to 220° C. at 2° C./min with He as carrier. The elution of co-injected standards was monitored with the Gow-Mac thermal conductivity detector (250° C. and 150 mA) and the radioactivity signal was continuously monitored with a Nuclear Chicago Model 8731 gas proportional counter; output data were processed using Perkin-Elmer Turbochrom Software.
(§2) Expression of Sesquiterpene Synthase cDNAs AG4 (SEQ ID No:19) and AG5. (SEQ ID No:23) in E. coli. Both putative sesquiterpene cyclase cDNAs (SEQ ID Nos:19 and 23) were expressed in bacterial strains E. coli XL1-Blue/pGAG4, E. coli XL1-Blue/pGAG5, E. coli BL21(DE3)/pSBAG4, and E. coli BL21(DE3)/pSBAG5 as set forth in EXAMPLE 7. Bacteria were grown to A600=0.5 at 37° C. in 5 ml or 100 ml of LB medium supplemented with 100 μg ampicillin/ml or 30 μg kanamycin/ml as determined by the vector. Cultures were then induced by addition of 1 mM isopropyl-1-thio-β-D-galactopyranoside and grown for another 12 h at 20° C. Cells were harvested by centrifugation (2000×g, 10 min) and resuspended in either 1 ml or 5 ml sesquiterpene synthase assay buffer (EXAMPLE 2). Cells were disrupted by sonication (Braun-Sonic 2000 with microprobe at maximum power for 15 seconds at 0-4° C.) and the homogenates were cleared by centrifugation (18,000×g, 10 min). Preparative assays were employed to generate product for GLC-MS analysis, as set forth in EXAMPLE 2, with quantification of composition via the total ion current chromatogram.
Product Profile of Recombinant δ-Selinene Synthase (SEQ ID No:20) In Vitro.

| Structure (SMILES) | sesquiterpene products of δ-selinene synthase, % |
| --- | --- |
| CC(C)=C1C/C=C(\C)CC/C=C(\C)CC1 [E,E-Germacrene B] | 17.4% |
| C=C(C)[C@@H]1C/C=C(\C)CC/C=C(\C)CC1 [Germacrene A] | 6.7% |
| C/C1=C\C=C(\C(C)C)CC/C(C)=C/CC1 [Germacrene C] | 3.4% |
| C=C1/C=C/[C@H](C(C)C)CC/C(C)=C/CC1 [Germacrene D] | 0.8% |
| CC1=CCC(C(C)C)=C[C@@H]2[C@H](C)CC[C@H]12 [Guaia-6,9-diene] | 9.7% |
| CC1=CCCC2(C)CCC(=C(C)C)CC12 (stereo not drawn) [Seli-3,7(11)-diene] | 1.2% |
| C=C1CCCC2(C)CCC(C(C)C)=CC12 (stereo not drawn) [Sibirene] | 0.7% |
| CC(C)=C1C/C=C(\C)CC/C=C(\C)CC1 [Z-E-Germacrene B (tent.), Z,E-Germacrene B] | 1.3% |
| CC1=CC2C(CC1)C(C)=CCC2C(C)C (stereo not drawn) [α-Amorphene] | 2.7% |
| CC1=C[C@@H]2[C@@H](CC1)C(C)=CC[C@H]2C(C)C [α-Cadinene] | 0.2% |
| CC1=CC[C@H]2[C@H]3[C@@H]1[C@]2(C)CC[C@H]3C(C)C [α-Copaene] | 0.1% |
| C=C(C)[C@@H]1CC[C@H](C)C2=C(C1)[C@@H](C)CC2 [α-Guiaene] | 0.2% |
| C/C1=C\CC/C(C)=C/CC(C)(C)/C=C/C1 [α-Humulene] | 0.7% |
| C=C(C)[C@@H]1CC[C@@]2(C)CCC=C(C)[C@@H]2C1 [α-Selinene] | 1.7% |
| CC1=CC[C@@H]2[C@H]3[C@H](C(C)C)CC[C@]2(C)[C@@H]13 [α-Ylangene] | 0.1% |
| C=C(CCC=C(C)C)[C@@H]1CC=C(C)CC1 [β-Bisabolene] | 0.7% |
| C=C1CC/C=C(\C)CC[C@@H]2[C@@H]1CC2(C)C [β-Caryophyllene] | 1.5% |
| CC1=C[C@H]2C(=C(C)CC[C@H]2C(C)C)CC1 [δ-Amorphene] | 6.4% |
| CC1=C[C@@H]2C(=C(C)CC[C@H]2C(C)C)CC1 [δ-Cadinene] | 1.4% |
| CC1=C2C=C(C(C)C)CCC2(C)CCC1 (stereo not drawn) [δ-Selinene] | 25.3% |

target: T2, γ-Humulene Synthase (ag5) (SEQ ID No: 24) (Abies grandis, UniProt O64405); experiment: Product profile of recombinant γ-humulene synthase in vitro (preparative assay, GLC-MS); format: biochemical; settings: from [1-3H]farnesyl diphosphate; total ion current chromatogram
T2 construct: For further subcloning of the amplified, full-length cDNA into the pSBETa vector for high-level expression, the pGAG5 insert was amplified; made in house; host or cells: E. coli XL1-Blue/pGAG5 or E. coli BL21(DE3)/pSBAG5
T2 sequence (O64405 1-593): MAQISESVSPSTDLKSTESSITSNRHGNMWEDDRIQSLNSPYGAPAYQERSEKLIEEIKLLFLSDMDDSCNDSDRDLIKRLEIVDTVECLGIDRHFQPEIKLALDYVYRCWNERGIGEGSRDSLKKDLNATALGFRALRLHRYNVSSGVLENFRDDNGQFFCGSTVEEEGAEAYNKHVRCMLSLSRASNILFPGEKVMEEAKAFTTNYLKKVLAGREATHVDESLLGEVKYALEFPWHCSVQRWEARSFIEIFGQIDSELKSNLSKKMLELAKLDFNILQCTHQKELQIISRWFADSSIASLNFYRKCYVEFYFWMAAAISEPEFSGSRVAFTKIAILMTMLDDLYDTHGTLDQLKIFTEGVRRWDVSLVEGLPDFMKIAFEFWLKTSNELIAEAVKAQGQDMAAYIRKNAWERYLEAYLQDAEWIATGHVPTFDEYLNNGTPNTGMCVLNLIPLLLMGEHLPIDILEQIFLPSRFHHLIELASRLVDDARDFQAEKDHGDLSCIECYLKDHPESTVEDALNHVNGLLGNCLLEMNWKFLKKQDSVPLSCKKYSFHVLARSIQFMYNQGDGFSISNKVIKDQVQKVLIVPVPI
Procedure: as §1, §2
Product Profile of Recombinant γ-Humulene Synthase (SEQ ID No:24) In Vitro.

| Structure (SMILES) | sesquiterpene products of γ-humulene synthase, % |
| --- | --- |
| CC1=CCCC(C)=CCCC(C)=CCC1 [1,5,9-trimethylcyclododeca-1,5,9-triene (tent. 2 isomers), 1,5,9-trimethylcyclododeca-1,5,9-triene] | 0.2% |
| CC(C)C1CCC2(C)C3CC4C(C13)C42C (stereo not drawn) [Cyclosativene] | <0.1% |
| CC(C)=CC/C=C(/C)C1CC=C(C)CC1 (stereo not drawn) [E-α-Bisabolene] | 0.9% |
| C=CC(=C)CC/C=C(\C)CCC=C(C)C [E-β-Farnesene] | 1.3% |
| CC1(C)CCC[C@@]2(C)[C@@H]3CC4C([C@@H]31)C42C [Longicyclene] | 0.2% |
| C=C1[C@H]2CC[C@@H]3[C@H]2C(C)(C)CCC[C@]13C [Longifolene] | 11.8% |
| C=C1[C@@H]2CC[C@H]3[C@@H]2[C@@H](C(C)C)CC[C@@]13C [Sativene] | 3.1% |
| C=C1CCCC2(C)CCC(C(C)C)=CC12 (stereo not drawn) [Sibirene] | 15.1% |
| CC(C)=C1C/C=C(\C)CC/C=C(\C)CC1 [Z-E-Germacrene B (tent.), Z,E-Germacrene B] | 0.1% |
| CC1=CC2C(CC1)C(C)=CCC2C(C)C (stereo not drawn) [α-Amorphene] | 0.5% |
| CC1=CC[C@H]2[C@H]3[C@@H]1[C@]2(C)CC[C@H]3C(C)C [α-Copaene] | 0.1% |
| CC1=CC[C@@]23[C@@H]([C@@H]12)[C@H](C(C)C)CC[C@H]3C [α-Cubebene] | 0.1% |
| C=C1CCCC(C)(C)[C@H]2C=C(C)CC[C@@H]12 [α-Himachalene] | 4.8% |
| CC1=CC[C@@H]2[C@@H]3[C@H]1[C@@]2(C)CCCC3(C)C [α-Longipinene] | 3.4% |
| CC1=CC[C@@H]2[C@H]3[C@H](C(C)C)CC[C@]2(C)[C@@H]13 [α-Ylangene] | 2.7% |
| C=C(CCC=C(C)C)[C@@H]1CC=C(C)CC1 [β-Bisabolene] | 3.9% |
| C=C1CC[C@@]23[C@@H]([C@@H]12)[C@H](C(C)C)CC[C@H]3C [β-Cubebene] | 0.1% |
| CC1CCC=C2CCC3C(C3(C)C)C21C (stereo not drawn) [β-Gurjunene] | 2.0% |
| CC1=C[C@H]2C(=C(C)CCCC2(C)C)CC1 [β-Himachalene] | 7.2% |
| C=C1CCC2C3C1C2(C)CCCC3(C)C (stereo not drawn) [β-Longipinene] | 1.5% |
| C=C1CCC2C3C(C(C)C)CCC2(C)C13 (stereo not drawn) [β-Ylangene] | 0.3% |
| CC(C)=CCC/C(C)=C1/CC=C(C)CC1 [γ-Bisabolene] | 1.9% |
| CC1=C[C@H]2[C@@H](CC1)C(C)=CCCC2(C)C [γ-Himachalene] | 5.8% |
| C=C1C=CC(C)(C)CCCC(C)=CCC1 [γ-Humulene] | 28.6% |
| CC1=C[C@H]2C(=C(C)CC[C@H]2C(C)C)CC1 [δ-Amorphene] | 0.5% |
